35 compounds from patent US7271170B2, “Imidazo-pyrimidines and triazolo-pyrimidines: benzodiazepine receptor ligands” (Neurogen Corporation, priority 2003, dated 2007) can be followed below.

Molecules are shown by their SMILES.

This assay has as its target benzodiazepine site of the GABAA receptor. Put plainly: Ligand binding assay of Example 6 (3H-Ro15-1788 competition, purified rat cortical membranes). To be noted: for Ki: ligand binding assay of Example 6, Table 5 Ki.

By Ki is commonly meant a measure of affinity in units of concentration, obtained from inhibition or displacement. `CCCc1c(Cn2ccnc2-c2ncccc2F)ncn2nc(C3CCCO3)nc12` (centres unmarked) [Compound 254, 7-{[2-(3-fluoropyridin-2-yl)-1H-imidazol-1-yl]methyl}-8-propyl-2-(tetrahydrofuran-2-yl)[1,2,4]triazolo[1,5-c]pyrimidine] yielded a Ki of less than 1000 nM.
In turn, `CCC(O)c1c(Cn2ccnc2-c2cccc(F)n2)ncn2nc(C)nc12` (centres unmarked) [Compound 221, 1-{7-[2-(6-Fluoro-pyridin-2-yl)-imidazol-1-ylmethyl]-2-methyl-[1,2,4]triazolo[1,5-c]pyrimidin-8-yl}-propan-1-ol] displayed a Ki of less than 1000 nM.
In the case of `CCCc1c(Cn2ccnc2-c2ncccc2F)ncn2nc(C(=O)OCC)nc12` [Compound 238, 7-[2-(3-Fluoro-pyridin-2-yl)-imidazol-1-ylmethyl]-8-propyl-[1,2,4]triazolo[1,5-c]pyrimidine-2-carboxylic acidethyl ester], the Ki was less than 1000 nM.
The same measure, in the same setting: in the case of `CCc1c(Cn2ccnc2-c2ncccc2F)ncn2nc(C)nc12` [Compound 244, 8-ethyl-7-{[2-(3-fluoropyridin-2-yl)-1H-imidazol-1-yl]methyl}-2-methyl[1,2,4]triazolo[1,5-c]pyrimidine] it was less than 1000 nM.
For `CCc1c(Cn2ccnc2-c2ncccc2F)ncn2ncnc12` [Compound 234, 8-ethyl-7-{[2-(3-fluoropyridin-2-yl)-1H-imidazol-1-yl]methyl}[1,2,4]triazolo[1,5-c]pyrimidine], the Ki was less than 1000 nM.
`CCCc1c(Cn2ccnc2-c2cccc(C#N)n2)ncn2nc(COC(C)C)nc12` [Compound 264, 6-(1-{[2-(isopropoxymethyl)-8-propyl[1,2,4]triazolo[1,5-c]pyrimidin-7-yl]methyl}-1H-imidazol-2-yl)pyridine-2-carbonitrile] displayed a Ki of less than 1000 nM.
Same read-out and setting: the same measure for `CCCc1c(Cn2ccnc2-c2ncccc2F)ncn2nc(C(C)(C)O)nc12` [Compound 249, 2-(7-{[2-(3-fluoropyridin-2-yl)-1H-imidazol-1-yl]methyl}-8-propyl[1,2,4]triazolo[1,5-c]pyrimidin-2-yl)propan-2-ol]: less than 1000 nM; for `CCCc1c(Cn2ccnc2-c2ncccc2F)ncn2nc(N)nc12` [Compound 248, 7-{[2-(3-fluoropyridin-2-yl)-1H-imidazol-1-yl]methyl}-8-propyl[1,2,4]triazolo[1,5-c]pyrimidin-2-amine]: less than 1000 nM.
With `Cc1nc2c(CCCO)c(Cn3ccnc3-c3ncccc3F)ncn2n1` [Compound 228, 3-{7-[2-(3-Fluoro-pyridin-2-yl)-imidazol-1-ylmethyl]-2-methyl-[1,2,4]triazolo[1,5-c]pyrimidin-8-yl}-propan-1-ol], the Ki was less than 1000 nM.
Same read-out and setting: the same measure for `CCCc1c(Cn2ccnc2-c2ncccc2F)ncn2nc(C(N)=O)nc12` [Compound 239, 7-[2-(3-Fluoro-pyridin-2-yl)-imidazol-1-ylmethyl]-8-propyl-[1,2,4]triazolo[1,5-c]pyrimidine-2-carboxylic acidamide]: less than 1000 nM; for `CCCc1c(Cn2cc(Cl)nc2-c2ncccc2F)ncn2ncnc12` [Compound 241, 7-[4-Chloro-2-(3-fluoro-pyridin-2-yl)-imidazol-1-ylmethyl]-8-propyl-[1,2,4]triazolo[1,5-c]pyrimidine]: less than 1000 nM.
Same read-out and setting: in the case of `Cc1nc2c(CCCCl)c(Cn3ccnc3-c3ncccc3F)ncn2n1` [Compound 230, 8-(3-Chloro-propyl)-7-[2-(3-fluoro-pyridin-2-yl)-imidazol-1-ylmethyl]-2-methyl-[1,2,4]triazolo[1,5-c]pyrimidine] it was less than 1000 nM; in that of `CCCc1c(Cn2ccnc2-c2ncccc2C#N)ncn2nc(C)nc12` [Compound 242, 2-[1-(2-methyl-8-propyl-[1,2,4]triazolo[1,5-c]pyrimidin-7-ylmethyl)-1H-imidazol-2-yl]-nicotinonitrile], less than 1000 nM; in that of `CCCc1c(Cn2ccnc2-c2cccc(C#N)n2)ncn2nc(COCC)nc12` [Compound 260, 6-(1-{[2-(ethoxymethyl)-8-propyl[1,2,4]triazolo[1,5-c]pyrimidin-7-yl]methyl}-1H-imidazol-2-yl)pyridine-2-carbonitrile], less than 1000 nM.
For orientation: Kd means the equilibrium constant for the complex coming apart. As for `CCOC(=O)c1ncn2c1CN(C)C(=O)c1cc(F)ccc1-2` [^3H-Ro15-1788, reference compound], for the setting “radioligand, previously determined, used in Cheng-Prusoff equation, read-out: Kd, binding dissociation constant of 3H-Ro15-1788”, the Kd was determined as 1 nM.
Regarding `CCCc1c(Cn2ccnc2-c2ncccc2F)ncn2nc(COC(C)C)nc12` [Compound 263, 7-{[2-(3-fluoropyridin-2-yl)-1H-imidazol-1-yl]methyl}-2-(isopropoxymethyl)-8-propyl[1,2,4]triazolo[1,5-c]pyrimidine], the Ki was less than 1000 nM.
Same read-out and setting: the same measure for `CCCc1c(Cn2ccnc2-c2ncccc2F)ncn2nc(OC)nc12` [Compound 246, 7-{[2-(3-fluoropyridin-2-yl)-1H-imidazol-1-yl]methyl}-2-methoxy-8-propyl[1,2,4]triazolo[1,5-c]pyrimidine]: less than 1000 nM.
Regarding `CCCc1c(Cn2ccnc2-c2cccc(F)n2)ncn2nc(COCC)nc12` [Compound 250, 2-(ethoxymethyl)-7-{[2-(6-fluoropyridin-2-yl)-1H-imidazol-1-yl]methyl}-8-propyl[1,2,4]triazolo[1,5-c]pyrimidine], the Ki is less than 1000 nM.
On the same count and under the same terms, in the case of `CCCc1c(Cn2ccnc2-c2cccc(F)n2)nc(C)n2nc(C)nc12` [Compound 217, 7-[2-(6-Fluoro-pyridin-2-yl)-imidazol-1-ylmethyl]-2,5-dimethyl-8-propyl-[1,2,4]triazolo[1,5-c]pyrimidine] it was less than 1000 nM; in that of `CCOc1c(Cn2ccnc2-c2ncccc2F)ncn2nc(C)nc12` [Compound 243, 8-Ethoxy-7-[2-(3-fluoro-pyridin-2-yl)-imidazol-1-ylmethyl]-2-methyl-[1,2,4]triazolo[1,5-c]pyrimidine], less than 1000 nM; in that of `Cc1nc2c(CCF)c(Cn3ccnc3-c3ncccc3F)ncn2n1` [Compound 229, 8-(2-Fluoro-ethyl)-7-[2-(3-fluoro-pyridin-2-yl)-imidazol-1-ylmethyl]-2-methyl-[1,2,4]triazolo[1,5-c]pyrimidine], less than 1000 nM.
For `FCCCc1c(Cn2ccnc2-c2ncccc2F)ncn2ncnc12` [Compound 233, 8-(3-Fluoro-propyl)-7-[2-(3-fluoro-pyridin-2-yl)-imidazol-1-ylmethyl]-[1,2,4]triazolo[1,5-c]pyrimidine], the Ki is less than 1000 nM.
The compound `CCCc1c(Cn2ccnc2-c2cccc(F)n2)ncn2nc(C(C)(C)O)nc12` [Compound 252, 2-(7-{[2-(6-fluoropyridin-2-yl)-1H-imidazol-1-yl]methyl}-8-propyl[1,2,4]triazolo[1,5-c]pyrimidin-2-yl)propan-2-ol] gave a Ki of less than 1000 nM.
Same read-out and setting: the same measure for `CCCc1c(Cn2ccnc2-c2ncccc2F)ncn2nc(C(=O)OC)nc12` [Compound 251, methyl 7-{[2-(3-fluoropyridin-2-yl)-1H-imidazol-1-yl]methyl}-8-propyl[1,2,4]triazolo[1,5-c]pyrimidine-2-carboxylate]: less than 1000 nM.
`CCCc1c(Cn2ccnc2-c2cccc(C(F)(F)F)n2)ncn2ncnc12` [Compound 235, 8-Propyl-7-[2-(6-trifluoromethyl-pyridin-2-yl)-imidazol-1-ylmethyl]-[1,2,4]triazolo[1,5-c]pyrimidine]: the Ki was less than 1000 nM.
With `CCCc1c(Cn2ccnc2-c2cccc(C#N)n2)ncn2nc(COC)nc12` [Compound 253, 6-(1-{[2-(methoxymethyl)-8-propyl[1,2,4]triazolo[1,5-c]pyrimidin-7-yl]methyl}-1H-imidazol-2-yl)pyridine-2-carbonitrile], the Ki was less than 1000 nM.
Take `CCCc1c(Cn2ccnc2-c2ncccc2F)ncn2nc(COC3CCCC3)nc12` [Compound 265, 2-[(cyclopentyloxy)methyl]-7-{[2-(3-fluoropyridin-2-yl)-1H-imidazol-1-yl]methyl}-8-propyl[1,2,4]triazolo[1,5-c]pyrimidine]: the Ki was less than 1000 nM.
Still for that read-out and setting: in the case of `N#Cc1cccnc1-c1nccn1Cc1ncn2ncnc2c1CCCF` [Compound 236, 2-{1-[8-(3-Fluoro-propyl)-[1,2,4]triazolo[1,5-c]pyrimidin-7-ylmethyl]-1H-imidazol-2-yl}-nicotinonitrile] it was less than 1000 nM; in that of `N#Cc1cccc(-c2nccn2Cc2ncn3ncnc3c2CCCF)n1` [Compound 237, 6-{1-[8-(3-Fluoro-propyl)-[1,2,4]triazolo[1,5-c]pyrimidin-7-ylmethyl]-1H-imidazol-2-yl}-pyridine-2-carbonitrile], less than 1000 nM.
On to `CCCc1c(Cn2ccnc2-c2ncccc2F)ncn2nc(-c3cccnc3)nc12` [Compound 225, 7-[2-(3-Fluoro-pyridin-2-yl)-imidazol-1-ylmethyl]-8-propyl-2-pyridin-3-yl-[1,2,4]triazolo[1,5-c]pyrimidine], for which the Ki is less than 1000 nM.
On the same count and under the same terms, the same measure for `CCCc1c(Cn2ccnc2-c2cccc(F)n2)nc(C)n2nc(CC)nc12` [Compound 218, 2-Ethyl-7-[2-(6-fluoro-pyridin-2-yl)-imidazol-1-ylmethyl]-5-methyl-8-propyl-[1,2,4]triazolo[1,5-c]pyrimidine]: less than 1000 nM.
Consider `CCC(O)c1c(Cn2ccnc2-c2ncccc2F)ncn2nc(C)nc12` (centres unmarked) [Compound 222, 1-{7-[2-(3-Fluoro-pyridin-2-yl)-imidazol-1-ylmethyl]-2-methyl-[1,2,4]triazolo[1,5-c]pyrimidin-8-yl}-propan-1-ol], for which the Ki is less than 1000 nM.
The same measure, in the same setting: in the case of `Cc1nc2c(CCCF)c(Cn3ccnc3-c3ncccc3F)ncn2n1` [Compound 232, 8-(3-Fluoro-propyl)-7-[2-(3-fluoro-pyridin-2-yl)-imidazol-1-ylmethyl]-2-methyl-[1,2,4]triazolo[1,5-c]pyrimidine] it was less than 1000 nM.
Same read-out and setting: in the case of `CCCc1c(Cn2ccnc2-c2ncccc2F)ncn2nc(N(CCC)CCC)nc12` [Compound 259, 7-{[2-(3-fluoropyridin-2-yl)-1H-imidazol-1-yl]methyl}-N,N,8-tripropyl[1,2,4]triazolo[1,5-c]pyrimidin-2-amine] it was less than 1000 nM.
`CCCc1c(Cn2ccnc2-c2ncccc2F)ncn2nc(CC(F)(F)F)nc12` [Compound 257, 7-{[2-(3-fluoropyridin-2-yl)-1H-imidazol-1-yl]methyl}-8-propyl-2-(2,2,2-trifluoroethyl)[1,2,4]triazolo[1,5-c]pyrimidine] registered a Ki of less than 1000 nM.
